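The concentration for 50% growth inhibition is given as GI50. TGI denotes the concentration required for complete inhibition of growth.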
Columns and labels:
Test in all cases: inhibition of tumour cell growth, NCI panel, 384-well format
COLO 205 colon = system: COLO 205 colon
ACHN renal = system: ACHN renal
HCT-15 colon = system: HCT-15 colon
SF-268 CNS = system: SF-268 CNS
UACC-257 melanoma = system: UACC-257 melanoma
MDA-MB-231 breast = system: MDA-MB-231 breast
BT-549 breast = system: BT-549 breast
NCI-H322M lung = system: NCI-H322M lung
UO-31 renal = system: UO-31 renal
SK-MEL-28 melanoma = system: SK-MEL-28 melanoma
SK-OV-3 ovarian = system: SK-OV-3 ovarian
CAKI-1 renal = system: CAKI-1 renal
HCC-2998 colon = system: HCC-2998 colon
SF-295 CNS = system: SF-295 CNS
SW-620 colon = system: SW-620 colon
SK-MEL-5 melanoma = system: SK-MEL-5 melanoma
RXF 393 renal = system: RXF 393 renal
HOP-62 NSCLC = system: HOP-62 NSCLC
LOX IMVI melanoma = system: LOX IMVI melanoma
M14 melanoma = system: M14 melanoma
DU-145 prostate = system: DU-145 prostate
NCI-H460 NSCLC = system: NCI-H460 NSCLC
NCI-H23 lung = system: NCI-H23 lung
CCRF-CEM leukemia = system: CCRF-CEM leukemia
SNB-75 CNS = system: SNB-75 CNS
KM12 colon = system: KM12 colon
HT29 colon = system: HT29 colon
NCI-H522 lung = system: NCI-H522 lung
K-562 leukemia = system: K-562 leukemia
A498 renal = system: A498 renal
NCI-H226 lung = system: NCI-H226 lung
OVCAR-4 ovarian = system: OVCAR-4 ovarian
IGROV1 ovarian = system: IGROV1 ovarian
SN12C renal = system: SN12C renal
HS 578T breast = system: HS 578T breast
MCF7 breast = system: MCF7 breast
TK-10 renal = system: TK-10 renal
SR leukemia = system: SR leukemia
HL-60(TB) leukemia = system: HL-60(TB) leukemia
NCI/ADR-RES ovarian = system: NCI/ADR-RES ovarian
EKVX NSCLC = system: EKVX NSCLC
MALME-3M melanoma = system: MALME-3M melanoma
UACC-62 melanoma = system: UACC-62 melanoma
OVCAR-8 ovarian = system: OVCAR-8 ovarian
RPMI-8226 leukemia = system: RPMI-8226 leukemia
MDA-MB-435 melanoma = system: MDA-MB-435 melanoma
OVCAR-5 ovarian = system: OVCAR-5 ovarian
SF-539 CNS = system: SF-539 CNS
SNB-19 CNS = system: SNB-19 CNS
786-0 renal = system: 786-0 renal
T-47D breast = system: T-47D breast
A549 NSCLC = system: A549 NSCLC
HOP-92 NSCLC = system: HOP-92 NSCLC
PC-3 prostate = system: PC-3 prostate
MDA-MB-468 breast = system: MDA-MB-468 breast
MOLT-4 leukemia = system: MOLT-4 leukemia
OVCAR-3 ovarian = system: OVCAR-3 ovarian

Compound `COc1cc2c(cc1-c1c(C)noc1C)cc(C)c(=O)n2Cc1ccccn1` has a GI50 (COLO 205 colon) of 498 nM, a TGI (COLO 205 colon) of 13300 nM and a GI50 (ACHN renal) of 1050 nM. The TGI (ACHN renal) was > 100000 nM, the GI50 (HCT-15 colon) was 282 nM and the TGI (HCT-15 colon) was 1550 nM. For the same compound, the GI50 (SF-268 CNS) was 2010 nM, the TGI (SF-268 CNS) was 11300 nM and the GI50 (UACC-257 melanoma) was 373 nM. For the same compound, the TGI (UACC-257 melanoma) was 4710 nM, the GI50 (MDA-MB-231 breast) was 367 nM and the TGI (MDA-MB-231 breast) was 16200 nM. For the same compound, the GI50 (BT-549 breast) was 262 nM, the TGI (BT-549 breast) was 1680 nM and the GI50 (NCI-H322M lung) was 1090 nM. For the same compound, the TGI (NCI-H322M lung) was 31700 nM, the GI50 (UO-31 renal) was 2890 nM and the TGI (UO-31 renal) was > 100000 nM. The GI50 (SK-MEL-28 melanoma) was 628 nM, the TGI (SK-MEL-28 melanoma) was 6770 nM and the GI50 (SK-OV-3 ovarian) was 433 nM. The TGI (SK-OV-3 ovarian) was 3610 nM, the GI50 (CAKI-1 renal) was 342 nM and the TGI (CAKI-1 renal) was 18500 nM. It also gave a GI50 (HCC-2998 colon) of 324 nM, a TGI (HCC-2998 colon) of 1410 nM and a GI50 (SF-295 CNS) of 1750 nM. It also gave a TGI (SF-295 CNS) of 24900 nM, a GI50 (SW-620 colon) of 1680 nM and a TGI (SW-620 colon) of 14400 nM. It also gave a GI50 (SK-MEL-5 melanoma) of 527 nM, a TGI (SK-MEL-5 melanoma) of 2380 nM and a GI50 (RXF 393 renal) of 1980 nM. For the same compound, the TGI (RXF 393 renal) was 15300 nM, the GI50 (HOP-62 NSCLC) was 415 nM and the TGI (HOP-62 NSCLC) was 16500 nM. The GI50 (LOX IMVI melanoma) was 321 nM, the TGI (LOX IMVI melanoma) was 1090 nM and the GI50 (M14 melanoma) was 600 nM. For the same compound, the TGI (M14 melanoma) was 21800 nM, the GI50 (DU-145 prostate) was 6450 nM and the TGI (DU-145 prostate) was > 100000 nM. The GI50 (NCI-H460 NSCLC) was 2120 nM, the TGI (NCI-H460 NSCLC) was 17500 nM and the GI50 (NCI-H23 lung) was 742 nM. It also gave a TGI (NCI-H23 lung) of 5190 nM, a GI50 (CCRF-CEM leukemia) of 338 nM and a TGI (CCRF-CEM leukemia) of 1650 nM. For the same compound, the GI50 (SNB-75 CNS) was 487 nM, the TGI (SNB-75 CNS) was > 100000 nM and the GI50 (KM12 colon) was 691 nM. The TGI (KM12 colon) was 20300 nM, the GI50 (HT29 colon) was 376 nM and the TGI (HT29 colon) was 5680 nM. For the same compound, the GI50 (NCI-H522 lung) was 202 nM, the TGI (NCI-H522 lung) was 817 nM and the GI50 (K-562 leukemia) was 448 nM. It also gave a TGI (K-562 leukemia) of 2780 nM, a GI50 (A498 renal) of 418 nM and a TGI (A498 renal) of 12400 nM. For the same compound, the GI50 (NCI-H226 lung) was 646 nM, the TGI (NCI-H226 lung) was 5740 nM and the GI50 (OVCAR-4 ovarian) was 188 nM. It also gave a TGI (OVCAR-4 ovarian) of 586 nM, a GI50 (IGROV1 ovarian) of 566 nM and a TGI (IGROV1 ovarian) of 3330 nM. The GI50 (SN12C renal) was 2180 nM, the TGI (SN12C renal) was 21500 nM and the GI50 (HS 578T breast) was 192 nM. It also gave a TGI (HS 578T breast) of 671 nM, a GI50 (MCF7 breast) of 257 nM and a TGI (MCF7 breast) of 2480 nM. The GI50 (TK-10 renal) was 367 nM, the TGI (TK-10 renal) was 3810 nM and the GI50 (SR leukemia) was 140 nM. The TGI (SR leukemia) was 1150 nM, the GI50 (HL-60(TB) leukemia) was 118 nM and the TGI (HL-60(TB) leukemia) was 255 nM. It also gave a GI50 (NCI/ADR-RES ovarian) of 371 nM, a TGI (NCI/ADR-RES ovarian) of 2470 nM and a GI50 (EKVX NSCLC) of 4540 nM. For the same compound, the TGI (EKVX NSCLC) was > 100000 nM, the GI50 (MALME-3M melanoma) was 274 nM and the TGI (MALME-3M melanoma) was 2180 nM. For the same compound, the GI50 (UACC-62 melanoma) was 190 nM, the TGI (UACC-62 melanoma) was 1440 nM and the GI50 (OVCAR-8 ovarian) was 430 nM. For the same compound, the TGI (OVCAR-8 ovarian) was 9450 nM, the GI50 (RPMI-8226 leukemia) was 106 nM and the TGI (RPMI-8226 leukemia) was 316 nM. For the same compound, the GI50 (MDA-MB-435 melanoma) was 1010 nM, the TGI (MDA-MB-435 melanoma) was 2420 nM and the GI50 (OVCAR-5 ovarian) was 496 nM. The TGI (OVCAR-5 ovarian) was 21300 nM, the GI50 (SF-539 CNS) was 805 nM and the TGI (SF-539 CNS) was 7540 nM. The GI50 (SNB-19 CNS) was 1130 nM, the TGI (SNB-19 CNS) was 23600 nM and the GI50 ([…]-0 renal) was 812 nM. It also gave a TGI (786-0 renal) of 19200 nM, a GI50 (T-47D breast) of 313 nM and a TGI (T-47D breast) of 3060 nM. The GI50 (A549 NSCLC) was 557 nM, the TGI (A549 NSCLC) was 18300 nM and the GI50 (HOP-92 NSCLC) was 234 nM. For the same compound, the TGI (HOP-92 NSCLC) was 4540 nM, the GI50 (PC-3 prostate) was 1820 nM and the TGI (PC-3 prostate) was > 100000 nM. For the same compound, the GI50 (MDA-MB-468 breast) was 226 nM, the TGI (MDA-MB-468 breast) was 693 nM and the GI50 (MOLT-4 leukemia) was 616 nM. It also gave a TGI (MOLT-4 leukemia) of 1920 nM, a GI50 (OVCAR-3 ovarian) of 374 nM and a TGI (OVCAR-3 ovarian) of 1650 nM.

— PubChem BioAssay (NCI)
